Key:
L6 = test: Cytotoxicity against rat L6 cells; assay type: cell-based
BALB/3T3 [1] = test: Cytotoxicity against mouse BALB/3T3 cells after 72 hrs by SRB assay; settings: BALB/3T3, 72 h
BALB/3T3 [2] = test: Ratio of IC50 for mouse BALB/3T3 cells to IC50 for human A549 cells
HCT-116 = test: Cytotoxicity against human HCT116 cells after 72 hrs by SRB assay; settings: HCT-116, 72 h
A549 [3] = test: Cytotoxicity against human A549 cells after 72 hrs by SRB assay; settings: A549, 72 h
MV4-11 = test: Cytotoxicity against human MV4-11 cells after 72 hrs by MTT assay; settings: MV4-11, 72 h
A549 [4] = test: Ratio of IC50 for human A549 cells to IC50 for human HCT116 cells; assay type: functional
BALB/3T3 [5] = test: Ratio of IC50 for mouse BALB/3T3 cells to IC50 for human HCT116 cells

COc1ccc2oc3nc4ccccc4c-3c(NCCCNC(=O)Nc3ccccc3)c2c1
IC50 (L6): 169 µM

COc1ccc2c(c1)c(NCCCNC(=O)Nc1ccccc1)c1c3ccccc3nc-1n2C
IC50 (L6): 2.7 µM

NCCCNc1c2c3ccccc3nc-2oc2ccccc12
IC50 (BALB/3T3 [1]): 13.4 µM | Ratio IC50 (BALB/3T3 [2]): 2 | IC50 (HCT-116): 5.7 µM | IC50 (A549 [3]): 4.26 µM | IC50 (MV4-11): 1.02 µM

NCCCCNc1c2c3ccccc3nc-2oc2ccccc12
IC50 (BALB/3T3 [1]): 12.1 µM | IC50 (HCT-116): 7.2 µM | IC50 (A549 [3]): 3.9 µM | IC50 (MV4-11): 0.76 µM

OCCCNc1c2c3ccccc3nc-2oc2ccccc12
IC50 (MV4-11): 7.66 µM

CCN(CC)CCCC(C)Nc1c2c3ccccc3nc-2oc2ccccc12 (configuration not stated)
IC50 (MV4-11): 6.02 µM

c1ccc2c3c(N4CCOCC4)c4ccccc4oc-3nc2c1
IC50 (MV4-11): 9.2 µM

NCCCNc1c2c3ccccc3nc-2oc2ccc(Cl)cc12
IC50 (BALB/3T3 [1]): 10.1 µM | Ratio IC50 (BALB/3T3 [2]): 2 | IC50 (HCT-116): 3.28 µM | IC50 (A549 [3]): 5.59 µM | IC50 (MV4-11): 0.86 µM

NCCCCNc1c2c3ccccc3nc-2oc2ccc(Cl)cc12
Ratio IC50 (A549 [4]): 3 | IC50 (BALB/3T3 [1]): 11 µM | Ratio IC50 (BALB/3T3 [2]): 2 | IC50 (HCT-116): 2.03 µM | IC50 (A549 [3]): 5.56 µM | IC50 (MV4-11): 0.76 µM

OCCCNc1c2c3ccccc3nc-2oc2ccc(Cl)cc12
IC50 (MV4-11): > 30.6 µM

CCN(CC)CCCC(C)Nc1c2c3ccccc3nc-2oc2ccc(Cl)cc12 (configuration not stated)
IC50 (MV4-11): 7 µM

Clc1ccc2oc3nc4ccccc4c-3c(N3CCOCC3)c2c1
IC50 (MV4-11): > 29.5 µM

Clc1ccc2oc3nc4ccccc4c-3c(NCCc3c[nH]c4ccccc34)c2c1
IC50 (MV4-11): 7.57 µM

C=CCNc1c2c3ccccc3nc-2oc2ccc(Cl)cc12
IC50 (MV4-11): > 32.4 µM

CN1CCCN(c2c3c4ccccc4nc-3oc3ccc(Cl)cc23)CC1
IC50 (BALB/3T3 [1]): 16.8 µM | IC50 (HCT-116): 9.68 µM | IC50 (A549 [3]): 10.8 µM | IC50 (MV4-11): 0.63 µM

NCCCNc1c2c3ccccc3nc-2oc2ccc(Br)cc12
IC50 (BALB/3T3 [1]): 8.94 µM | IC50 (HCT-116): 4.19 µM | IC50 (A549 [3]): 6.19 µM | IC50 (MV4-11): 0.97 µM

NCCCCNc1c2c3ccccc3nc-2oc2ccc(Br)cc12
IC50 (BALB/3T3 [1]): 9.55 µM | IC50 (HCT-116): 6.74 µM | IC50 (A549 [3]): 7.36 µM | IC50 (MV4-11): 0.72 µM

OCCCNc1c2c3ccccc3nc-2oc2ccc(Br)cc12
IC50 (MV4-11): > 26.9 µM

CCN(CC)CCCC(C)Nc1c2c3ccccc3nc-2oc2ccc(Br)cc12 (configuration not stated)
IC50 (MV4-11): 4.93 µM

Brc1ccc2oc3nc4ccccc4c-3c(N3CCOCC3)c2c1
IC50 (MV4-11): 25.3 µM

COc1ccc2oc3nc4ccccc4c-3c(NCCCN)c2c1
Ratio IC50 (A549 [4]): 5 | IC50 (BALB/3T3 [1]): 6.87 µM | IC50 (HCT-116): 1.93 µM | IC50 (A549 [3]): 9.29 µM | Ratio IC50 (BALB/3T3 [5]): 5 | IC50 (MV4-11): 0.12 µM

COc1ccc2oc3nc4ccccc4c-3c(NCCCO)c2c1
IC50 (MV4-11): 7.26 µM

CCN(CC)CCCC(C)Nc1c2c3ccccc3nc-2oc2ccc(OC)cc12 (configuration not stated)
IC50 (MV4-11): 3.45 µM

COc1ccc2oc3nc4ccccc4c-3c(N3CCOCC3)c2c1
Ratio IC50 (A549 [4]): 5 | IC50 (BALB/3T3 [1]): 8.73 µM | IC50 (HCT-116): 1.7 µM | IC50 (A549 [3]): 10.6 µM | Ratio IC50 (BALB/3T3 [5]): 5 | IC50 (MV4-11): 0.38 µM

COc1ccc2oc3nc4ccccc4c-3c(NCCc3c[nH]c4ccccc34)c2c1
IC50 (MV4-11): 3.04 µM

COc1ccc2oc3nc4ccccc4c-3c(Nc3ccccc3)c2c1
IC50 (MV4-11): 4.35 µM

CS(=O)(=O)NCCCNc1c2c3ccccc3nc-2oc2ccccc12
IC50 (MV4-11): 7.74 µM

O=S(=O)(NCCCNc1c2c3ccccc3nc-2oc2ccccc12)c1ccccc1
IC50 (MV4-11): > 23.2 µM

O=S(=O)(NCCCNc1c2c3ccccc3nc-2oc2ccccc12)c1ccc2ccccc2c1
IC50 (MV4-11): 2.41 µM

CS(=O)(=O)NCCCNc1c2c3ccccc3nc-2oc2ccc(Br)cc12
IC50 (MV4-11): 6.22 µM

O=S(=O)(NCCCNc1c2c3ccccc3nc-2oc2ccc(Br)cc12)c1ccccc1
IC50 (MV4-11): > 19.6 µM

O=S(=O)(NCCCNc1c2c3ccccc3nc-2oc2ccc(Br)cc12)c1ccc2ccccc2c1
IC50 (MV4-11): 5.75 µM
